One assay addresses T1, Human PD-L1/PD-1 (Homo sapiens, UniProt Q9NZQ7).
T1 construct: made in house; host or cells: HEK293T
As to the kind of experiment: HTRF PD-1-Ig/PD-L1-His binding assay (human PD-L1). An outline of the steps: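 Soluble PD-1-Ig binding to PD-L1-His measured by HTRF in dPBS with 0.1% BSA and 0.05% Tween-20. Detection used europium cryptate anti-Ig antibody (1 nM final) and APC anti-His antibody (20 nM final) added on top of the binding reaction.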
For orientation: Time-resolved FRET reads energy transfer from a long-lived donor to a nearby acceptor.

Assay [1] has as its target T2, LK35.2-hPD-L1 cells / PE-labeled PD-1-Ig (Homo sapiens, UniProt Q9NZQ7).
T2 construct: expressed in transfected cells; host or cells: LK35.2 mouse B cell line
Description: LK35.2-hPD-L1 cell binding high-content screening assay. Type of assay: cell-based. The conditions noted are these: cell binding assay, cell line not given. An outline of the steps:
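Using overnight-cultured LK35.2-hPD-L1 mouse B cells, compound was co-incubated with phycoerythrin-tagged human PD-1-Ig (final 1 nM) at 37 °C for one hour. Unbound label was removed by triple dPBS washing prior to high-content image acquisition and analysis.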

The target of another assay is CMV-specific T cells (Homo sapiens, UniProt Q9NZQ7). Description: CMV-specific T cell function assay (IFNγ secretion, ELISA). Type of assay: cell-based. As for the experimental part: CMV-specific T Cell Function Assay. […] AIM-V medium (Life Technologies, Grand Island, N.Y.) supplemented with 10% heat-inactivated fetal bovine serum (FBS, Sigma, St Louis, Mo.) was used at a total volume of 200 µL/well in triplicate. The cells were cultured for 4 days at 37° C., 5% CO2 at which time culture supernatant was harvested for determination of secreted IFNγ by ELISA (OptEIA hIFNγ ELISA Kit, BD Biosciences, San Jose, Calif.).
CMV-specific T cells, sequence (Q9NZQ7 19-290): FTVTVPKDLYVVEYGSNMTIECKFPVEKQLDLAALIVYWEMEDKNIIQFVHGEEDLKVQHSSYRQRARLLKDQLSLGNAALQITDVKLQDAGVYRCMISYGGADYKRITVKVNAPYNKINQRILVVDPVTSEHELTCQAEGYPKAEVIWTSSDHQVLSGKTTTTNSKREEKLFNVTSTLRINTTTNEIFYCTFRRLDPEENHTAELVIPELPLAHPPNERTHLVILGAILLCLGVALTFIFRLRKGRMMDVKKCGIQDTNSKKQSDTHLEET
(In general: An ELISA detects its analyte on a solid surface through an enzyme-linked reagent.)

Setting [2] is: value given instead of cluster, read-out: HTRF IC50 value.
Where [3] appears, read: value given instead of cluster, read-out: CBA IC50 value.
[4] abbreviates: value given instead of cluster, read-out: CMV Recall EC50 value.
Where [5] appears, read: numeric value, read-out: HTRF IC50 values.
Where [6] appears, read: numeric value, read-out: CBA IC50 values.
The mark [7] stands for this setting: numeric value, read-out: CMV Recall EC50 values.

Read-outs that look alike come from different tables or passages of the source. Positions of bridges follow the written chain, without caps; N, C: chain ends. Non-standard residues stand in square brackets, D forms with d. Residues, ends and D or L forms follow the SMILES beside them. ξ: configuration not given here. Bta = N[C@@H](Cc1csc2ccccc12)C(=O)O; Hyp = O=C(O)[C@@H]1C[C@@H](O)CN1; NMeNle = CCCC[C@H](NC)C(=O)O; NMeA = CN[C@@H](C)C(=O)O; Dab = NCC[C@H](N)C(=O)O; Dap = NC[C@H](N)C(=O)O; ξC = NC(CS)C(=O)O

T1 sequence (Q9NZQ7 with tags, fused parts or gaps): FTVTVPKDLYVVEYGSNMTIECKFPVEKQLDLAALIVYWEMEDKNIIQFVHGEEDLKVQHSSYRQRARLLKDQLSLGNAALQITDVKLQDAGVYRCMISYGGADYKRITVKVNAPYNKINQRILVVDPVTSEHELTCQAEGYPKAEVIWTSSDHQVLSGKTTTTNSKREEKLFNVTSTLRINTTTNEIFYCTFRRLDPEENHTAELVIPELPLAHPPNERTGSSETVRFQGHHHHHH
T2 sequence (Q9NZQ7 19-290): as the sequence (Q9NZQ7 19-290) above

Broadly, the IC50 is the concentration at which inhibition is half-maximal. A word on the EC50: it is the concentration needed to bring the measured effect to its halfway point. For `CCCC[C@H]1C(=O)N(C)[C@@H](CCCC)C(=O)N[C@@H](CCCNC(=N)N)C(=O)N[C@H](C(=O)NCC(N)=O)CSCC(=O)N[C@@H](Cc2ccc(O)cc2)C(=O)N(C)[C@@H](C)C(=O)N[C@@H](CCN)C(=O)N2CCC[C@H]2C(=O)N[C@@H](Cc2cnc[nH]2)C(=O)N[C@@H](CCC(=O)O)C(=O)N2C[C@H](O)C[C@H]2C(=O)N[C@@H](Cc2c[nH]c3ccccc23)C(=O)N[C@@H](CO)C(=O)N[C@@H](Cc2c[nH]c3ccccc23)C(=O)N1C` [Example 5025] ({CH2CO}-Y[NMeA][Dab]PHE[Hyp]WSW[NMeNle][NMeNle]RCG-NH2; thioether N-14), the IC50 amounted to 7.43 nM on Human PD-L1/PD-1 (setting [2]) and 1.16 nM in assay [1] (setting [3]). For the same compound, the half-maximal effective concentration (EC50) at CMV-specific T cells (setting [4]) came out at 2.3 nM.

Turning to `CCCC[C@H]1C(=O)N(C)[C@@H](CCCC)C(=O)N[C@@H](CN)C(=O)N[C@H](C(=O)NCC(N)=O)CSCC(=O)N[C@@H](Cc2ccc(O)cc2)C(=O)N(C)[C@@H](C)C(=O)N[C@@H](CC(N)=O)C(=O)N2CCC[C@H]2C(=O)N[C@@H](Cc2cnc[nH]2)C(=O)N[C@@H](CCC(=O)O)C(=O)N2C[C@H](O)C[C@H]2C(=O)N[C@@H](Cc2c[nH]c3ccccc23)C(=O)N[C@@H](CO)C(=O)N[C@@H](Cc2c[nH]c3ccccc23)C(=O)N1C` [Example 5062] ({CH2CO}-Y[NMeA]NPHE[Hyp]WSW[NMeNle][NMeNle][Dap]CG-NH2; thioether N-14), the IC50 worked out at 5.15 nM on Human PD-L1/PD-1 (setting [2]) and 2.28 nM in assay [1] (setting [3]). Also, on CMV-specific T cells (setting [4]), the concentration giving a half-maximal response (EC50) worked out at 14.5 nM.

`CCCC[C@H]1C(=O)N(C)[C@@H](CCCC)C(=O)N[C@@H](CC(C)C)C(=O)N[C@H](C(=O)NCC(N)=O)CSCC(=O)N[C@@H](Cc2ccc(O)cc2)C(=O)N(C)[C@@H](C)C(=O)N[C@@H](CC(N)=O)C(=O)N2CCC[C@H]2C(=O)N[C@@H](CN)C(=O)N[C@@H](CCC(=O)O)C(=O)N2C[C@H](O)C[C@H]2C(=O)N[C@@H](Cc2c[nH]c3ccccc23)C(=O)N[C@@H](CCN)C(=O)N[C@@H](Cc2c[nH]c3ccccc23)C(=O)N1C` [Example 5067] ({CH2CO}-Y[NMeA]NP[Dap]E[Hyp]W[Dab]W[NMeNle][NMeNle]LCG-NH2; thioether N-14): the figures for the IC50 (at Human PD-L1/PD-1 (setting [2]); in assay [1] (setting [3])) were 5.77 nM and 1.81 nM, respectively. For the same compound, the half-maximal effective concentration (EC50) at CMV-specific T cells (setting [4]) was determined as 3.27 nM.

Consider `CCCC[C@H]1C(=O)N(C)[C@@H](CCCC)C(=O)N[C@@H](CC(C)C)C(=O)N[C@H](C(=O)NCC(N)=O)CSCC(=O)N[C@@H](Cc2ccc(O)cc2)C(=O)N(C)[C@@H](C)C(=O)N[C@@H](CC(N)=O)C(=O)N2CCC[C@H]2C(=O)N[C@@H](CN)C(=O)N[C@@H](CCC(=O)O)C(=O)N2C[C@H](O)C[C@H]2C(=O)N[C@@H](Cc2c[nH]c3ccccc23)C(=O)N[C@@H](CO)C(=O)N[C@@H](Cc2c[nH]c3ccccc23)C(=O)N1C` [Example 5071] ({CH2CO}-Y[NMeA]NP[Dap]E[Hyp]WSW[NMeNle][NMeNle]LCG-NH2; thioether N-14), for which the IC50 is 10.5 nM at Human PD-L1/PD-1 (setting [2]) and 1.01 nM in assay [1] (setting [3]). Also, the EC50 on CMV-specific T cells (setting [4]) came to 14 nM.

`CCCC[C@H]1C(=O)N(C)[C@@H](CCCC)C(=O)N[C@@H](CCN)C(=O)N[C@H](C(=O)NCC(N)=O)CSCC(=O)N[C@@H](Cc2ccc(O)cc2)C(=O)N(C)[C@@H](C)C(=O)N[C@@H](CCN)C(=O)N2CCC[C@H]2C(=O)N[C@@H](Cc2c[nH]cn2)C(=O)N[C@@H](CCC(=O)O)C(=O)N2C[C@H](O)C[C@H]2C(=O)N[C@@H](Cc2c[nH]c3ccccc23)C(=O)N[C@@H](CO)C(=O)N[C@@H](Cc2c[nH]c3ccccc23)C(=O)N1C` [Example 5093] ({CH2CO}-Y[NMeA][Dab]PHE[Hyp]WSW[NMeNle][NMeNle][Dab]CG-NH2; thioether N-14): the 50% inhibitory concentration (IC50) at Human PD-L1/PD-1 (setting [2]) is 6.76 nM; in assay [1] (setting [3]) it was 3.14 nM. In addition, the EC50 at CMV-specific T cells (setting [4]) came out at 100 nM.

Consider `CCCC[C@H]1C(=O)N(C)[C@@H](CCCC)C(=O)N[C@@H](CO)C(=O)N[C@H](C(=O)NCC(N)=O)CSCC(=O)N[C@@H](Cc2ccc(O)cc2)C(=O)N(C)[C@@H](C)C(=O)N[C@@H](CC(=O)O)C(=O)N2CCC[C@H]2C(=O)N[C@@H](CO)C(=O)N[C@@H](CO)C(=O)N2C[C@H](O)C[C@H]2C(=O)N[C@@H](Cc2c[nH]c3ccccc23)C(=O)N[C@@H](CO)C(=O)N[C@@H](Cc2c[nH]c3ccccc23)C(=O)N1C` [Example 5117] ({CH2CO}-Y[NMeA]DPSS[Hyp]WSW[NMeNle][NMeNle]SCG-NH2; thioether N-14), for which the IC50 on Human PD-L1/PD-1 (setting [2]) amounted to 5.33 nM; in assay [1] (setting [3]), 6.75 nM. For the same compound, the concentration for a half-maximal effect (EC50) on CMV-specific T cells (setting [4]) was determined as 103 nM.

Take `CCCC[C@H]1C(=O)N([13CH3])[C@@H](CCCC)C(=O)N[C@@H](CCCNC(=N)N)C(=O)N[C@H](C(=O)NCC(N)=O)CSCC(=O)N[C@@H](Cc2ccc(O)cc2)C(=O)N([13CH3])[C@@H](C)C(=O)N[C@@H](CC(N)=O)C(=O)N2CCC[C@H]2C(=O)N[C@@H](Cc2cnc[nH]2)C(=O)N[C@@H](CC(C)C)C(=O)N2CCC[C@H]2C(=O)N[C@@H](Cc2c[nH]c3ccccc23)C(=O)N[C@@H](CO)C(=O)N[C@@H](Cc2csc3ccccc23)C(=O)N1[13CH3]` [Example 6035]: the values for the IC50 (on Human PD-L1/PD-1 (setting [2]); in assay [1] (setting [3])) were 4.97 nM and 0.763 nM, respectively. Also, the EC50 on CMV-specific T cells (setting [4]) stood at 5.75 nM.

Regarding `CCCC[C@H]1C(=O)N[C@@H](CCCNC(=N)N)C(=O)NC(C(=O)NCC(N)=O)CSCC(=O)N[C@@H](Cc2ccc(O)cc2)C(=O)N(C)[C@@H](C)C(=O)N[C@@H](CC(N)=O)C(=O)N2CCC[C@H]2C(=O)N[C@@H](Cc2cnc[nH]2)C(=O)N[C@@H](CC(C)C)C(=O)N2C[C@H](O)C[C@H]2C(=O)N[C@@H](Cc2c[nH]c3ccccc23)C(=O)N[C@@H](CO)C(=O)N[C@@H](Cc2c[nH]c3ccccc23)C(=O)N(C)[C@@H](CCSC)C(=O)N1C` (stereo partly drawn) [Example 9026], the IC50 on Human PD-L1/PD-1 (setting [5]) was 3.47 nM; in assay [1] (setting [6]), 0.948 nM. The EC50 at CMV-specific T cells (setting [7]) turned out to be 34.4 nM.

Consider `CCCC[C@H]1C(=O)N(C)[C@@H](CCCC)C(=O)N[C@@H](CCCNC(=N)N)C(=O)NC(C(=O)N[C@@H](CO)C(N)=O)CSCC(=O)N[C@@H](Cc2ccc(O)cc2)C(=O)N(C)[C@@H](C)C(=O)N[C@@H](CC(N)=O)C(=O)N2CCC[C@H]2C(=O)N[C@@H](Cc2cnc[nH]2)C(=O)N[C@@H](CC(C)C)C(=O)N2CCC[C@H]2C(=O)N[C@@H](Cc2c[nH]c3ccccc23)C(=O)N[C@@H](CO)C(=O)N[C@@H](Cc2csc3ccccc23)C(=O)N1C` (stereo partly drawn) [Example 9031] ({CH2CO}-Y[NMeA]NPHLPWS[Bta][NMeNle][NMeNle]R[ξC]S-NH2; thioether N-14), for which the figures for the IC50 (on Human PD-L1/PD-1 (setting [5]); in assay [1] (setting [6])) were 7.15 nM and 0.643 nM, respectively. In addition, the EC50 at CMV-specific T cells (setting [7]) was 39.4 nM.

Consider `CCCC[C@H]1C(=O)N[C@@H](CCCNC(=N)N)C(=O)NC(C(=O)NCC(N)=O)CSCC(=O)N[C@@H](Cc2ccc(O)cc2)C(=O)N(C)[C@@H](C)C(=O)N[C@@H](CC(N)=O)C(=O)N2CCC[C@H]2C(=O)N[C@@H](Cc2cnc[nH]2)C(=O)N[C@@H](CC(C)C)C(=O)N2C[C@H](O)C[C@H]2C(=O)N[C@@H](Cc2c[nH]c3ccccc23)C(=O)N[C@@H](CO)C(=O)N[C@@H](Cc2c[nH]c3ccccc23)C(=O)N(C)[C@@H](C)C(=O)N1C` (stereo partly drawn) [Example 9057], for which the figures for the IC50 (at Human PD-L1/PD-1 (setting [5]); in assay [1] (setting [6])) were 14.9 nM and 19.5 nM, respectively. Further, the EC50 on CMV-specific T cells (setting [7]) came to 112 nM.

Values taken from US9850283B2, “Macrocyclic inhibitors of the PD-1/PD-L1 and CD80(B7-1)/PD-L1 protein/protein interactions” (BRISTOL-MYERS SQUIBB COMPANY, priority 2013, dated 2017).
